pIC50: −log10 of the molar value.
biological target: T1, PI3Kδ (PI3Kd) (Homo sapiens, UniProt O00329); assay: PI3K HTRF enzymatic inhibition assay (cell-free, Millipore kit), PI3Kd isoform; type: biochemical; details: recombinant PI3Kd 0.60 nM, PIP2 2 µM, ATP 20 µM, incubation 8 minutes
T1 construct: purchased Millipore
Description: Compounds were screened for their ability to inhibit PI3Kα (PI3Ka), PI3Kβ (PI3Kb), PI3Kδ (PI3Kd) and PI3Kγ (PI3Kg) using a cell-free based P13K HTRF™ assay (Millipore, ref. #33-017) All reagents to perform the reactions were prepared according to the manufacturer protocol. All PI3K enzymes were recombinant and were purchased at Millipore.
All four assays were performed according to the following procedure: • 1) Dilution curves of compounds were done in 100% DMSO and dispensed in a reservoir plate, typically from column 2 to 11. Column 1 and 12 were used for the negative controls (100% inhibition using a reference PI3K inhibitor for the four isoforms) and the positive controls (0% inhibition using dimethyl sulfoxide (DMSO) only). • 2) Mix of Phosphoinositide 3-kinase (PI3K) + Phosphatidylinositol 4,5-bisphosphate (PIP2) was diluted in buffer (supplied with the kit) and plated in a medium binding black 96-well plate (Greiner ref. #675076) PI3Ka was diluted at 0.25 nM with PIP2 at 2 µM; PI3Kb was diluted at 0.50 nM with PIP2 at 5 µM; PI3Kd was diluted at 0.60 nM with PIP2 at 2 µM and PI3Kg was diluted at 0.30 nM with PIP2 at 10 µM. These concentrations were final in the assay. • 3) A reservoir plate containing Adenosine TriPhosphate (ATP) diluted in the Millipore kit buffer was prepared for each isoform. The final concentration of ATP in the assay was 10 µM, 15 µM, 20 µM and 10 µM for PI3Ka, PI3Kb, PI3Kd and PI3Kg respectively. • 4) Reactions were started by addition to the PI3K+PIP2 plates of the ATP and compounds simultaneously. Incubation was done for 8 minutes (for all four isoforms) then the reaction was stopped by addition of the Stop solution. The Detection solution was added. These solutions were prepared previously according to the kit specifications. The plates were then incubated overnight at RT before reading the signal in an Envision (PerkinElmer), with excitation at 340 nm and emissions at 620 and 665 nm. • 5) Data obtained from the compound curves were normalized in respect to the negative and positive controls, and then fitted by a 4-parameter log curve in ActivityBase (IDBS) in order to determine their potency.

T1 sequence (O00329 whole entry, canonical isoform): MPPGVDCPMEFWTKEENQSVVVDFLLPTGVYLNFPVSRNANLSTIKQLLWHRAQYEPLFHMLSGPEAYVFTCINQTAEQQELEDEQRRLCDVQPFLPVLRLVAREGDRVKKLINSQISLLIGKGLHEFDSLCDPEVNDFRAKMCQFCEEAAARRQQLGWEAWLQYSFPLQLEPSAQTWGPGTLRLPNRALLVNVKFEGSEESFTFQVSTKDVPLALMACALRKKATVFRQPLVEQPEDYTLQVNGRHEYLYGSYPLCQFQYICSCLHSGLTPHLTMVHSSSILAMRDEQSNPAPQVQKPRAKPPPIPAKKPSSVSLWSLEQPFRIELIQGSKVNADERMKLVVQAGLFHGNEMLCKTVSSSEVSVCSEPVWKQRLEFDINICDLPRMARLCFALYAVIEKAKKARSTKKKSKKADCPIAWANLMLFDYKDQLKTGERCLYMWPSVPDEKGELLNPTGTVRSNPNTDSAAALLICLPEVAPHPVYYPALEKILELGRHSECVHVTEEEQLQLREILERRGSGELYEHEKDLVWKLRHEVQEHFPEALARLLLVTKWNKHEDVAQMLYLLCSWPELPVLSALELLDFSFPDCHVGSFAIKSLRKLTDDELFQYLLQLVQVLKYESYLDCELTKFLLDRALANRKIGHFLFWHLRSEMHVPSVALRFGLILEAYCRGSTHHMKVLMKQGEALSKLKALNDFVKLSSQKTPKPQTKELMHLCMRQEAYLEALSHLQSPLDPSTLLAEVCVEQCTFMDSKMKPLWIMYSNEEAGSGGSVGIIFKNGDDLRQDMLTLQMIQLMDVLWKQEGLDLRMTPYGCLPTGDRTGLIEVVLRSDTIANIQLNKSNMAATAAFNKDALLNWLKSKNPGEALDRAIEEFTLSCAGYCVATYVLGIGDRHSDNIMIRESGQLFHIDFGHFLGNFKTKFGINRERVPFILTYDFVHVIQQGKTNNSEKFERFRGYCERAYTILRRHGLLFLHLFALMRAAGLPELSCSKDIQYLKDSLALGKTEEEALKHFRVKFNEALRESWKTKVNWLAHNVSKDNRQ
T1 sequence (P27986 whole entry partner, canonical isoform): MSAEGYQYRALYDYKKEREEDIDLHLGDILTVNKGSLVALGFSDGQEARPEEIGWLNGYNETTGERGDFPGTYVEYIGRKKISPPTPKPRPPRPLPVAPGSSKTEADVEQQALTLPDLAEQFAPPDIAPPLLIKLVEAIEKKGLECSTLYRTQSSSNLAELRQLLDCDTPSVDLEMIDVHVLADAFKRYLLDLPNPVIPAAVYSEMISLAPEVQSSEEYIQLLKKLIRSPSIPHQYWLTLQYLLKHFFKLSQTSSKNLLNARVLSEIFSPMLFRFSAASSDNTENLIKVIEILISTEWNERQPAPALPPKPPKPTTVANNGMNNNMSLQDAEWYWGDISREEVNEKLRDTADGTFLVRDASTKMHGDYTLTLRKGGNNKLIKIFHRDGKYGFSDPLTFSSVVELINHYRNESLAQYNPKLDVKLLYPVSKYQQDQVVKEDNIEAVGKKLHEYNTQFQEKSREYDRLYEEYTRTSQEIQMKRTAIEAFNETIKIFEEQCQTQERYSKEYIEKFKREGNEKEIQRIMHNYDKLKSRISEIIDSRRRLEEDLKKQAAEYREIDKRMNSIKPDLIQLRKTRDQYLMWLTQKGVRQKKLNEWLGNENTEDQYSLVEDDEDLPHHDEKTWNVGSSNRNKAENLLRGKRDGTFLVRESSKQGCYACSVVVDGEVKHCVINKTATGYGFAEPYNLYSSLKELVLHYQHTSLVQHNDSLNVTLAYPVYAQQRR

| Compound | pIC50 |
| --- | --- |
| COc1ccc2nc([C@H](C)Nc3ncnc4[nH]cnc34)n(-c3ccccc3)c2n1 [Example 10, (S)-N-(1-(5-Methoxy-3-phenyl-3H-imidazo[4,5-b]pyridin-2-yl)ethyl)-9H-purin-6-amine] | 7.50 |
| C[C@H](Nc1ncnc2[nH]cnc12)c1nc2cccnc2n1-c1cc(F)cc(F)c1 [Example 12, (S)-N-(1-(3-(3,5-Difluorophenyl)-3H-imidazo[4,5-b]pyridin-2-yl)ethyl)-9H-purin-6-amine] | 6.73 |
| COc1ccc2nc([C@H](C)Nc3ncnc4[nH]cnc34)n(-c3cc(F)cc(F)c3)c2n1 [Example 15, (S)-N-(1-(3-(3,5-Difluorophenyl)-5-methoxy-3H-imidazo[4,5-b]pyridin-2-yl)ethyl)-9H-purin-6-amine] | 7.96 |
| C[C@H](Nc1ncnc(N)c1C#N)c1nc2cccnc2n1-c1ccccc1 [Example 19, (S)-4-Amino-6-(1-(3-phenyl-3H-imidazo[4,5-b]pyridin-2-yl)ethylamino)pyrimidine-5-carbonitrile] | 6.88 |
| Cc1ccc2nc([C@H](C)Nc3ccnc4ccnn34)n(-c3ccccc3)c2n1 [Example 26, (S)-N-(1-(5-Methyl-3-phenyl-3H-imidazo[4,5-b]pyridin-2-yl)ethyl)pyrazolo[1,5-a]pyrimidin-7-amine] | 6.16 |
| C[C@H](Nc1ncnc2[nH]cnc12)c1nc2cccnc2n1-c1ccccc1Cl [Example 39, N-{(1S)-1-[3-(2-Chlorophenyl)-3H-imidazo[4,5-b]pyridin-2-yl]ethyl}-9H-purin-6-amine] | 6.67 |

Further compounds by rising pIC50, results first:

| pIC50 | Compound |
| --- | --- |
| 5.74 | C[C@H](Nc1ncnc2[nH]cnc12)c1nc2ncccc2n1-c1ccccc1 [Example 43, (S)-N-(1-(1-Phenyl-1H-imidazo[4,5-b]pyridin-2-yl)ethyl)-9H-purin-6-amine] |
| 6.78 | C[C@H](Nc1ncnc2[nH]cnc12)c1nc2cc(F)cnc2n1-c1ccccc1 [Example 37, N-[(1S)-1-(6-Fluoro-3-phenyl-3H-imidazo[4,5-b]pyridin-2-yl)ethyl]-9H-purin-6-amine] |
| 7.07 | C[C@H](Nc1nc(N)nc2[nH]cnc12)c1nc2cccnc2n1-c1ccccc1 [Example 9, (S)-N6-(1-(3-Phenyl-3H-imidazo[4,5-b]pyridin-2-yl)ethyl)-9H-purine-2,6-diamine] |
| 7.28 | Cc1ccc2nc([C@H](C)Nc3ncnc(N)c3C#N)n(-c3ccccc3)c2n1 [Example 25, (S)-4-Amino-6-(1-(5-methyl-3-phenyl-3H-imidazo[4,5-b]pyridin-2-yl)ethylamino)pyrimidine-5-carbonitrile] |
| 7.65 | COc1ccc2nc([C@H](C)Nc3ncnc(N)c3C#N)n(-c3ccccc3)c2n1 [Example 21, (S)-4-Amino-6-(1-(5-methoxy-3-phenyl-3H-imidazo[4,5-b]pyridin-2-yl)ethylamino)pyrimidine-5-carbonitrile] |
| 7.84 | CC[C@H](Nc1ncnc2[nH]cnc12)c1nc2ccc(OC)nc2n1-c1ccccc1 [Example 14, (S)-N-(1-(5-Methoxy-3-phenyl-3H-imidazo[4,5-b]pyridin-2-yl)propyl)-9H-purin-6-amine] |

— EP2518071A1, “Imidazopyridine derivatives as PI3K inhibitors” (Almirall, S.A., priority 2011, dated 2012)
